Measured values as given in the supplement of paper PMC10307832.

Key:
Assay in all cases: relative viability (nuclei count vs DMSO), 5 days (fraction); higher = more cells survive
[1] = compound: CC1(C)CCC(CN2CCN(c3ccc(C(=O)NS(=O)(=O)c4ccc(NCC5CCOCC5)c([N+](=O)[O-])c4)c(Oc4cnc5[nH]ccc5c4)c3)CC2)=C(c2ccc(Cl)cc2)C1 [Venetoclax] + CC(=O)c1c(C)c2cnc(Nc3ccc(N4CCNCC4)cn3)nc2n(C2CCCC2)c1=O [Palbociclib] (partner 0.5 µM)
How it was run: (§1)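 Lung cancer cell lines in 1536-well plates got either a single drug or a fixed anchor-drug dose together with five library-drug doses (not always all listed) in √10 steps, by pin tool, on the day after seeding. Nuclei were counted after 5 days, and relative viability is the treated-to-vehicle ratio of nuclei counts. Values are medians of duplicate plates.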

[2] = compound: CC1(C)CCC(CN2CCN(c3ccc(C(=O)NS(=O)(=O)c4ccc(NCC5CCOCC5)c([N+](=O)[O-])c4)c(Oc4cnc5[nH]ccc5c4)c3)CC2)=C(c2ccc(Cl)cc2)C1 [Venetoclax] + NC(=O)Nc1cc(-c2cccc(F)c2)sc1C(=O)N[C@H]1CCCNC1 [AZD7762] (partner 0.2 µM)
How it was run: as §1

[3] = compound: Cn1cnc2c(F)c(Nc3ccc(Br)cc3Cl)c(C(=O)NOCCO)cc21 [Selumetinib] + C[C@@H](Oc1cc(-c2cnn(C3CCNCC3)c2)cnc1N)c1c(Cl)ccc(F)c1Cl [Crizotinib] (partner 1 µM)
How it was run: as §1

[4] = compound: Cn1cnc2c(F)c(Nc3ccc(Br)cc3Cl)c(C(=O)NOCCO)cc21 [Selumetinib] + Nc1ncn([C@H]2C[C@H](O)[C@@H](CO)O2)c(=O)n1 [Decitabine] (partner 2 µM)
How it was run: as §1

Row | Cell Line | relative viability ([1]; first compound 0.01 µM) | relative viability ([1]; first compound 0.03162 µM) | relative viability ([1]; first compound 0.1 µM) | relative viability ([1]; first compound 0.3162 µM) | relative viability ([1]; first compound 1 µM) | relative viability ([2]; first compound 0.01 µM) | relative viability ([2]; first compound 0.03162 µM) | relative viability ([2]; first compound 0.1 µM) | relative viability ([2]; first compound 0.3162 µM) | relative viability ([2]; first compound 1 µM) | relative viability ([3]; first compound 0.02 µM) | relative viability ([3]; first compound 0.06325 µM) | relative viability ([3]; first compound 0.2 µM) | relative viability ([3]; first compound 0.6325 µM) | relative viability ([4]; first compound 0.02 µM) | relative viability ([4]; first compound 0.06325 µM) | relative viability ([4]; first compound 0.2 µM) | relative viability ([4]; first compound 0.6325 µM)
1 | HCC-44 | 0.928 | 0.954 | 0.934 | 0.899 | 0.919 | 1.01 | 0.99 | 1.04 | 0.929 | 0.924 | 0.883 | 0.753 | 0.876 | 0.876 | 1.03 | 0.982 | 0.962 | 0.942
2 | SK-MES-1 | 0.329 | 0.336 | 0.327 | 0.326 | 0.286 |  |  |  |  |  | 1 | 0.905 | 0.974 | 0.741 | 0.416 | 0.307 | 0.356 | 0.323
3 | EPLC-272H | 0.351 | 0.298 | 0.345 | 0.338 | 0.318 | 0.192 | 0.188 | 0.229 | 0.318 | 0.225 | 0.877 | 0.846 | 0.707 | 0.731 | 0.364 | 0.339 | 0.346 | 0.294
4 | NCI-H838 | 0.236 | 0.212 | 0.217 | 0.208 | 0.2 | 0.93 | 0.999 | 0.877 | 0.923 | 0.837 | 0.783 | 0.689 | 0.634 | 0.601 | 0.446 | 0.421 | 0.45 | 0.448
5 | SK-LU-1 | 0.405 | 0.403 | 0.35 | 0.403 | 0.372 |  |  |  |  |  | 0.922 | 0.881 | 0.828 | 0.46 | 0.793 | 0.65 | 0.572 | 0.438
6 | Calu-6 |  |  |  |  |  |  |  |  |  |  | 0.804 | 0.603 | 0.51 | 0.343 |  |  |  | 
7 | LCLC-103H | 0.518 | 0.479 | 0.491 | 0.437 | 0.428 | 0.837 | 0.737 | 0.809 | 0.817 | 0.734 | 1.02 | 0.846 | 0.857 | 0.948 | 0.697 | 0.715 | 0.71 | 0.706
8 | CAL-12T | 0.401 | 0.565 | 0.384 | 0.453 | 0.314 | 0.584 | 0.644 | 0.638 | 0.636 | 0.435 | 0.621 | 0.573 | 0.704 | 0.597 |  |  |  | 
9 | SW 1573 | 0.337 | 0.422 | 0.377 | 0.36 | 0.362 |  |  |  |  |  | 0.762 | 0.683 | 0.639 | 0.597 | 0.505 | 0.369 | 0.384 | 0.373
10 | NCI-H1666 | 0.625 | 0.656 | 0.631 | 0.627 | 0.656 | 0.915 | 0.849 | 0.715 | 0.839 | 0.803 | 0.956 | 0.791 | 0.829 | 0.614 | 0.758 | 0.682 | 0.689 | 0.71
